Laboratory results taken from PMC8876231, “Analogues of Natural Chalcones as Efficient Inhibitors of AKR1C3” (Metabolites, 2022).

Legend:
HSD17B7 = biological target: T1, HSD17B7 (Homo sapiens, UniProt P56937); assay: HSD17B7 inhibition assay (estrone to oestradiol); format: biochemical; conditions: 10 µM compound; mean ± SD
T1 construct: GST (own knowledge: pGEX vectors encode N-terminal GST); made in house; host or cells: E. coli BL21 DE3 Codon Plus RP
T1 sequence (P56937 1-341): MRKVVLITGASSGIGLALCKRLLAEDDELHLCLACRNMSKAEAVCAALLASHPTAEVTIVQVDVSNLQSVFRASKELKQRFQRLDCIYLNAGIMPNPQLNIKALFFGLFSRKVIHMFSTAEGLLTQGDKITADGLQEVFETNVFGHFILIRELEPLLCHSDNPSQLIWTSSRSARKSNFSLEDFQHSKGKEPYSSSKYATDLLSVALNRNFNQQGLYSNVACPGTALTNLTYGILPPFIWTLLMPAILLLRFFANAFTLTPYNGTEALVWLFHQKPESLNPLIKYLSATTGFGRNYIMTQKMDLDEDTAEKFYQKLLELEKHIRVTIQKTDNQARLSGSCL
Source text: (§1) For enzymatic assays and inhibitor testing, all enzymes were cloned into bacterial or mammalian expression vectors. AKR1C3 and the human hydroxysteroid dehydrogenases HSD17B1, HSD17B2, HSD17B4 (SDR domain), HSD17B7, and HSD17B10 were cloned into a pGEX vector as described in [71, 72]. The coding sequences for AKR1C1, AKR1C2, and AKR1C4 were cloned by Gateway technology into the pcDNA3-N-MycDest vector according to the manufacturer’s instructions (Life Technologies, Carlsbad, CA, USA). The p11 plasmid coding for HSD17B14 (S205 variant) was a gift from Udo Opperman SGC Oxford, UK. For assays with HSD17B3, HEK293 cells stably expressing HSD17B3 were used. Enzymes were expressed in E. coli BL21 DE3 or E. coli BL21 DE3 Codon Plus RP (Stratagene, San Diego, CA, USA) or in HEK293 cells as described in [71, 72, 73]. Bacterial and cell pellets were stored at −20 °C and −80 °C, respectively, until use.
(§2) Inhibition assays were carried out as described in [71, 74]. […] For a detailed assay setup, see Supplementary Table S6. The incubation at 37 °C was stopped with 0.21 M ascorbic acid in methanol:acetic acid 99:1 (v:v) after the time needed to convert approximately 30% of the substrate in a control assay with 1% DMSO, without inhibitor candidate. Substrates and products were extracted from the reaction mixture by solid-phase extraction using C18 cartridges (Phenomenex, Aschaffenburg, Germany) and separated by RP–HPLC in a Beckman–Coulter HPLC Gold system, using the Luna 5 µm C18(2), 125 × 4.0 mm column (Phenomenex). The mobile phases used were H2O:ACN (57:43 (v:v); for assays of estrone (E1) to oestradiol (E2), E2 to E1, and ∆4-androstene-3,17-dione to testosterone conversion), H2O:ACN (49:51 (v:v); for assays of progesterone to 20α-hydroxyprogesterone conversion), and H2O:MeOH (35:65 (v:v) for assays of dihydrotestosterone (DHT) to 3α-androstanediol conversion) at a flow rate of 1 mL/min. Radioactivity was detected by online scintillation counting by using a radioactivity monitor (LB506D, Berthold Technologies, Bad Wildbad, Germany). Conversion of substrates to products was determined by integration of the peak area of the substrate and product peaks in percent. For calculation of inhibition, the conversion of control assay (assay without inhibitor) was set to 0% inhibition. All assays were run in triplicates, and mean values ± SD are reported.
(§3) Table S6: Activity assay setup […]
(§4) E1: estrone; E2: 17β-estradiol, A: Δ4-androstene-3,17-dione; T: testosterone, P: progesterone, 20αOHP: 20α-hydroxyprogesterone, DHT: dihydrotestosterone, 3α-Adiol: 3α-androstanediol, NaPi: 100 mM Na-phosphate buffer; PI: C0mplete protease inhibitor (Roche);. E.coli - Expression in E.coli BL21 DE3 Codon Plus RP except E.coli BL21 DE3 […]
(§5) application to antiparasitic and natural product synthesis. Eur J Org Chem […]
(§6) Synthesis of Xanthohumol analogues and discovery of potent thioredoxin reductase inhibitor as potential anticancer agent. J Med Chem 2015, 58,

HSD17B1 = biological target: T2, HSD17B1 (Homo sapiens, UniProt P14061); assay: HSD17B1 inhibition assay (estrone to oestradiol); format: biochemical; conditions: 10 µM compound; mean ± SD
T2 construct: GST (own knowledge: pGEX vectors encode N-terminal GST); made in house; host or cells: E. coli BL21 DE3 Codon Plus RP
T2 sequence (P14061 1-328): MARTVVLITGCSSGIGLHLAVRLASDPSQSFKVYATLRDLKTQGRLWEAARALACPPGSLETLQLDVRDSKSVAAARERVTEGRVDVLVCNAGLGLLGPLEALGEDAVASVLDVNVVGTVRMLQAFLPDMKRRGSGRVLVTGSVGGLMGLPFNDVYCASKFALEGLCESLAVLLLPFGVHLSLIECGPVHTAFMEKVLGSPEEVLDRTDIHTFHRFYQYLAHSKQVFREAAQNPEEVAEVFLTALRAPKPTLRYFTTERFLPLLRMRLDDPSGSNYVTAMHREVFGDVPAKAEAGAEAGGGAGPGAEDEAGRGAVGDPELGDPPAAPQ
Source text: as §1, §2, §3, §4, §5, §6

HSD17B10 = biological target: T3, HSD17B10 (Homo sapiens, UniProt Q99714); assay: HSD17B10 inhibition assay (oestradiol to estrone); format: biochemical; conditions: 10 µM compound; mean ± SD
T3 construct: GST (own knowledge: pGEX vectors encode N-terminal GST); made in house; host or cells: E. coli BL21 DE3 Codon Plus RP
T3 sequence (Q99714 1-261): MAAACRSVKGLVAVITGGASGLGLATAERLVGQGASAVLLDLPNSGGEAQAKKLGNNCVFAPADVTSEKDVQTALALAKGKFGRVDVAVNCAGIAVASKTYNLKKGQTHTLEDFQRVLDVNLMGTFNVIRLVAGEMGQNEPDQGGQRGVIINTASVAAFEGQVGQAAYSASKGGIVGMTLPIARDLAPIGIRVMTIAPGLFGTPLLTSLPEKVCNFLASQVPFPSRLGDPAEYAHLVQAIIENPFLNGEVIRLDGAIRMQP
Source text: as §1, §2, §3, §4, §5, §6

HEK293T cells = assay: Cell Titer Blue cell viability (cytotoxicity) assay; conditions: 72 h, 1 µM to 100 µM tested
Experimental: For the cultivation of HEK293T cells, Dulbecco’s modified Eagle medium (DMEM, Pan Biotech GmbH, Aidenbach, Germany) supplemented with 10% FCS (Pan Biotech GmbH), 100 U/mL penicillin, and 100 µg/mL streptomycin (Pan Biotech GmbH) was used. The cells were cultured at 37 °C and 5% CO2 in constant humidity. Before cell seeding, culture flasks and multiwell plates were coated with collagen G (0.001% in PBS, Merck, Darmstadt, Germany).
For studying the cytotoxicity of the different chalcones and the positive control compounds cisplatin and etoposide on HEK293T cells, the Cell Titer® Blue (CTB) Cell Viability Assay was used (Promega, Mannheim, Germany). A total of 10,000 cells in a 200 µL culture medium were seeded into each well of a 96-well plate. Then, 24 h after seeding, the cells were treated with 0, 1, 2.5, 5, 7.5, 10, 15, 25, 50, or 100 µM of the different compounds (3 wells per compound and concentration) and incubated for an additional 72 h. For measurement of cell viability, 20 µL of CTB reagent were added to each well, and after 5 h at 37 °C, the metabolic activity was quantified by recording the fluorescence signal (λEx 560 nm, λEm 590 nm) on a Spark plate reader (Tecan Trading GmbH, Männedorf, Switzerland). […] Statistical significances were calculated by one-way ANOVA (Dunnett’s multiple comparison test), * p < 0.05, ** p < 0.005, *** p < 0.0002, **** p < 0.0001.

SMILES	Inhibition of HSD17B7 at 10 µM in % (HSD17B7) [%]	Inhibition of HSD17B1 at 10 µM in % (HSD17B1) [%]	Inhibition of HSD17B10 at 10 µM in % (HSD17B10) [%]	inhibition at 10 µM (HSD17B7) [%]	inhibition at 10 µM (HSD17B1) [%]	inhibition at 10 µM (HSD17B10) [%]	Compound concentration at which HEK293T viability was significantly decreased (HEK293T cells) [µM]
COc1ccc(/C=C/C(=O)c2c(O)cc(O)cc2O)cc1 [Compound 19]	4.6 ± 4.4	42.3 ± 5.3	2.2 ± 2.6	–	–	–	–
COc1cc(O)cc(O)c1C(=O)/C=C/c1ccc(Cl)cc1Cl [Compound 25]	37.7 ± 11.4	–	-0.5 ± 7.3	–	–	–	7.5
Cc1cccc(/C=C/C(=O)c2c(O)cc(O)cc2O)c1 [Compound 20]	3.8 ± 3.5	51.8 ± 5.1	-2.5 ± 0.7	–	–	–	–

Further lines, with some results ahead:

Inhibition of HSD17B7 at 10 µM in % (HSD17B7) [%]	Inhibition of HSD17B1 at 10 µM in % (HSD17B1) [%]	Inhibition of HSD17B10 at 10 µM in % (HSD17B10) [%]	inhibition at 10 µM (HSD17B7) [%]	inhibition at 10 µM (HSD17B1) [%]	inhibition at 10 µM (HSD17B10) [%]	SMILES	Compound concentration at which HEK293T viability was significantly decreased (HEK293T cells) [µM]
6.5 ± 6.7	46.5 ± 8.8	-0.5 ± 6.5	–	–	–	COc1ccc(/C=C/C(=O)c2c(O)cc(O)cc2OC)cc1 [Compound 18]	–
6.8 ± 4.7	42.8 ± 9.1	8.0 ± 6.5	–	–	–	Cc1ccc(/C=C/C(=O)c2c(O)cc(O)cc2O)cc1 [Compound 21]	–
–	–	–	9.9 ± 4.7	53.3	5.2 ± 3.8	O=C(/C=C/c1ccc(Cl)cc1Cl)c1c(O)cc(O)cc1O [Compound 23, 2,4-dichloro-2′,4′,6′-trihydroxychalcone]	≥ 50
